Assay results from publication PMC4418728, “A High Throughput Protein Microarray Approach to Classify HIV Monoclonal Antibodies and Variant Antigens” (PLoS ONE, 2015).
No end group written: not given here.

Tests used:
mAb 4E10 = test: In-solution competition ELISA; assay type: binding, human; details: for IC50: read-out: IC50 of competitor peptide, mAb 4E10
Description: (§1) The in-solution competition ELISA was performed according to Stanfield and colleagues. In brief, 96-well plates were coated o/n with 200 ng/well neutravidin (Pierce) in PBS at 4°C and blocked with 4% NFDM for 1 h at RT. Different competing MPER peptide analogs (serially diluted 1:3 in 1% NFDM at a starting concentration of 0.04 mM) were mixed with a constant concentration of biotinylated peptide bio-0705 (0.1 μg/ml) or bio-57 (0.1 μg/ml) and the corresponding human mAb 4E10 (0.5 μg/ml) or mAb 2F5 (0.2 μg/ml), respectively. The antibody/peptide mixture was incubated for 2 h at 37°C, subsequently transferred to the neutravidin plates and incubated at 37°C for 20 min. Bound antibodies were detected with HRP labeled goat anti human F(ab)2 conjugate (Pierce). After 1 h at RT, wells were developed, stopped and read as described above. The concentration of competitor peptide corresponding to a half-maximal signal (IC50) was determined by nonlinear fit interpolation of the resulting binding curve (GraphPad PRISM 5.0 software). Each peptide competitor was tested in duplicate in at least two separate experiments.

mAb 2F5 = test: In-solution competition ELISA; assay type: binding, human; details: competition with biotinylated peptide bio-57 (0.1 μg/ml) for mAb 2F5 (0.2 μg/ml), peptide 1:3 dilutions from 0.04 mM, 2 h at 37°C, duplicate, at least two experiments; for IC50: read-out: IC50 of competitor peptide, mAb 2F5
Description: as §1

[1] = competition with biotinylated peptide bio-0705 (0.1 μg/ml) for mAb 4E10 (0.5 μg/ml), peptide 1:3 dilutions from 0.04 mM, 2 h at 37°C, duplicate, at least two experiments

| Substance | IC50 of competitor peptide, mAb 4E10 (mAb 4E10; [1]) | IC50 of competitor peptide, mAb 2F5 (mAb 2F5) | IC50 (mAb 4E10; [1]) [nM] | IC50 (mAb 2F5) [nM] | enhancement in IC50 compared to control peptide 94.1, mAb 4E10 (mAb 4E10; in-solution competition assay) |
| --- | --- | --- | --- | --- | --- |
| WTLNIFWIWSYLDWSNKKKK-NH2 [compound 08023, scrambled negative control peptide based on 09122] | did not interact | did not interact |  |  |  |
| ELDKWASLWNWFNITNWLWYIKIEELKSKIKRIENEIKRIKK [C22-pT, reference compound] |  |  | 3270 | > 10000 |  |
| ELDKWASLWNWFDITNWLWYIKIEELKSKIKRIENEIKRIKK [compound 09128] |  |  | 0.9 | 76.3 | more than 80 fold |
